Experiment [1] has as its target Growth factor receptor-bound protein 7 (Homo sapiens) (UniProt Q14451). Nature of the experiment: Inhibition of GRB7-FAK interaction in human SKBR3 cells assessed as FAK detection in whole cells at 20 uM preincubated for 1 hr followed by fibronectin stimulation measured after 10 mins by Western blot analysis. Format: cell-based. For orientation: In western blotting, separated proteins are transferred to a membrane and probed.

The target is the same in experiment [2]. Nature of the experiment: Inhibition of GRB7-HER2 interaction in human SKBR3 cells assessed as HER2 detection in whole cells at 20 uM preincubated for 1 hr followed by fibronectin stimulation measured after 10 mins by Western blot analysis. The class given is cell-based.
Experiment [3] has the same target. Nature of the experiment: Inhibition of GRB7-SHC interaction in human SKBR3 whole cells at 20 uM preincubated for 1 hr followed by fibronectin stimulation measured after 10 mins by Western blot analysis. The class given is cell-based.
Experiment [4] has the same target. Nature of the experiment: Inhibition of GRB7-HER2 interaction in human SKBR3 cells assessed as HER2 detection in cell lysates at 20 uM preincubated for 1 hr followed by fibronectin stimulation measured after 10 mins by Western blot analysis. The class given is cell-based.
For experiment [5] the target is unchanged. The experiment in a line: Inhibition of GRB7-FAK interaction in human SKBR3 cells assessed as FAK detection in cell lysates at 20 uM preincubated for 1 hr followed by fibronectin stimulation measured after 10 mins by Western blot analysis. Format: cell-based.
Experiment [6] has the same target. The experiment in a line: Inhibition of GRB7-SHC interaction in human SKBR3 cells assessed as SHC detection in cell lysates at 20 uM preincubated for 1 hr followed by fibronectin stimulation measured after 10 mins by Western blot analysis. Format: cell-based.
Experiment [7] concerns the target Growth factor receptor-bound protein 2 (Homo sapiens) (UniProt P62993). The experiment in a line: Binding affinity to human GST-tagged GRB2-SH2 domain expressed in Escherichia coli BL21(DE3) pLys after 60 to 80 secs in presence of 50 mM phosphate buffer by SPR assay. A general note: In SPR one partner is held on a chip, and binding of the other changes the refractive index at the surface.

In experiment [8] the target is T1, Growth factor receptor-bound protein 10 (Homo sapiens) (UniProt Q13322).
T1 sequence (whole entry): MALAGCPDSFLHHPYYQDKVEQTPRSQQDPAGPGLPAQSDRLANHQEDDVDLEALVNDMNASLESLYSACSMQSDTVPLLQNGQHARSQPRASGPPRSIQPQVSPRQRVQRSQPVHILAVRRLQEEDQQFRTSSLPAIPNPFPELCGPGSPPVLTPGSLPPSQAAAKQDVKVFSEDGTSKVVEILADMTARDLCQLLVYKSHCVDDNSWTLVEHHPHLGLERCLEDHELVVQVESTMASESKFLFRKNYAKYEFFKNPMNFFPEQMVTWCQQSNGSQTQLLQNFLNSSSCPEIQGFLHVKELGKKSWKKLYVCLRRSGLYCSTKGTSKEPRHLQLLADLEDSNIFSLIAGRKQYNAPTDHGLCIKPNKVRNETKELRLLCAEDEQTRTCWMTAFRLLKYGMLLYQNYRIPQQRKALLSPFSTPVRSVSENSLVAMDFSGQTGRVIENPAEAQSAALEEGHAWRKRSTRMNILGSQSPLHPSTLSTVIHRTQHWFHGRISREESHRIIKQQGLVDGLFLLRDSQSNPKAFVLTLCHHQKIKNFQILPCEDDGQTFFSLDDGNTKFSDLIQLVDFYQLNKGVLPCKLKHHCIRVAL
Nature of the experiment: Binding affinity to human GST-tagged GRB10-SH2 domain (471 to 532 residues) expressed in Escherichia coli BL21(DE3) pLys after 60 to 80 secs in presence of 50 mM phosphate buffer by SPR assay.

For experiment [9], the target named is T1, Growth factor receptor-bound protein 10 (Homo sapiens). Nature of the experiment: Binding affinity to human GST-tagged GRB10-SH2 domain (471 to 532 residues) expressed in Escherichia coli BL21(DE3) pLys after 60 to 80 secs in presence of 1 mM phosphate buffer by SPR assay.
Experiment [10] addresses Growth factor receptor-bound protein 2 (Homo sapiens) (UniProt P62993). The experiment in a line: Binding affinity to human GST-tagged GRB2-SH2 domain expressed in Escherichia coli BL21(DE3) pLys after 60 to 80 secs in presence of 1 mM phosphate buffer by SPR assay.

The structures appear in SMILES notation. Active and inactive are the calls of the source. The rule behind the calls is not given here. Where a SMILES comes first, the peptide text is derived from it. Bridges are numbered along the chain shown (N, C = ends). [ ]: non-standard residue; d: D form. Phe(4-COOH) = N[C@@H](Cc1ccc(C(=O)O)cc1)C(=O)O

Growth factor receptor-bound protein 7 (Homo sapiens), sequence (Q14451 whole entry): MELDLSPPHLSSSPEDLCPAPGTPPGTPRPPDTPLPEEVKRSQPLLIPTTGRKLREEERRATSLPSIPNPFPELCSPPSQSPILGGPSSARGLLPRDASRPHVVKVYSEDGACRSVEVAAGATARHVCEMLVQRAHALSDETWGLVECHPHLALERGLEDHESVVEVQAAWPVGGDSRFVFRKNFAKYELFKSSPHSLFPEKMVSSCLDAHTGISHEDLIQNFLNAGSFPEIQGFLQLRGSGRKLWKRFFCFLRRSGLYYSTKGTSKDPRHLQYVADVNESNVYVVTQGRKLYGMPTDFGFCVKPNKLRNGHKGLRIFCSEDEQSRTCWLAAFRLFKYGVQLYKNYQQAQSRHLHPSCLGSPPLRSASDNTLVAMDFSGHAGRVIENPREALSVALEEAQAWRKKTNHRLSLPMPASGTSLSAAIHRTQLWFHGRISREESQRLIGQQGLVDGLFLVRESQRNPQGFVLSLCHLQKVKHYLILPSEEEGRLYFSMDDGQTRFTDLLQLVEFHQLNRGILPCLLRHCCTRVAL
Growth factor receptor-bound protein 2 (Homo sapiens), sequence (P62993 whole entry, looked up, the tested form may be a part): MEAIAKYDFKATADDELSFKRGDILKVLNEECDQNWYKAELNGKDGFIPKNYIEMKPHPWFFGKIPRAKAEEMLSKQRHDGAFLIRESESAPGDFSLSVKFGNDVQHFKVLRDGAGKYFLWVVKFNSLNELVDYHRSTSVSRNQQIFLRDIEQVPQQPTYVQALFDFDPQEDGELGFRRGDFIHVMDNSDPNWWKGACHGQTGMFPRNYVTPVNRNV

Turning to `CC[C@H](C)[C@H](NC(=O)[C@H](CCCCN)NC(=O)[C@@H](NC(=O)[C@H](CCC(N)=O)NC(=O)[C@H](CCCNC(=N)N)NC(=O)[C@@H]1CSCC(=O)N[C@@H](Cc2c[nH]c3ccccc23)C(=O)N[C@@H](Cc2ccccc2)C(=O)N[C@@H](CCC(=O)O)C(=O)NCC(=O)N[C@@H](Cc2ccc(C(=O)O)cc2)C(=O)N[C@@H](CC(=O)O)C(=O)N[C@@H](CC(N)=O)C(=O)N[C@@H]([C@@H](C)O)C(=O)N[C@@H](Cc2ccccc2)C(=O)N2CCC[C@H]2C(=O)N1)[C@@H](C)CC)C(=O)N[C@@H](Cc1c[nH]c2ccccc12)C(=O)N[C@@H](Cc1ccccc1)C(=O)N[C@@H](CCC(N)=O)C(=O)N[C@@H](CC(N)=O)C(=O)N[C@@H](CCCNC(=N)N)C(=O)N[C@@H](CCCNC(=N)N)C(=O)N[C@@H](CCSC)C(=O)N[C@@H](CCCCN)C(=O)N[C@@H](Cc1c[nH]c2ccccc12)C(=O)N[C@@H](CCCCN)C(=O)N[C@@H](CCCCN)C(N)=O`, the inhibition entry in [1], in experiment [2], in experiment [3], in [4], in experiment [5] and in experiment [6] was “Active” in each case.
Turning to `NC(=O)C[C@@H]1NC(=O)[C@H](CC(=O)O)NC(=O)[C@H](Cc2ccc(O)cc2)NC(=O)CNC(=O)[C@H](CCC(=O)O)NC(=O)[C@H](Cc2ccccc2)NC(=O)[C@@H]2COCc3cn(nn3)CCC[C@H](NC1=O)C(=O)N[C@H](C(N)=O)CSCC(=O)N2`, the outcome in experiment [7], in [8], in [9] and in [10] was inactive.
With `NC(=O)C[C@@H]1NC(=O)[C@H](CC(=O)O)NC(=O)[C@H](Cc2ccc(O)cc2)NC(=O)CNC(=O)[C@H](CCC(=O)O)NC(=O)[C@H](Cc2ccccc2)NC(=O)[C@@H]2CCC(=O)NCCCC[C@H](NC1=O)C(=O)N[C@H](C(N)=O)CSCC(=O)N2` ({CH2CO}-EFEGYDNKC-NH2; lactam 1-8; thioether N-9), the outcome in [7], in experiment [8], in experiment [9] and in experiment [10] was inactive.
Turning to `NC(=O)C[C@@H]1NC(=O)[C@H](CC(=O)O)NC(=O)[C@H](Cc2ccc(O)cc2)NC(=O)CNC(=O)[C@H](CCC(=O)O)NC(=O)[C@H](Cc2ccccc2)NC(=O)[C@@H]2CCCCNC(=O)CC[C@H](NC1=O)C(=O)N[C@H](C(N)=O)CSCC(=O)N2` ({CH2CO}-KFEGYDNEC-NH2; lactam 1-8; thioether N-9), the result in [7], in [8], in [9] and in experiment [10] was inactive.
Regarding `CC[C@H](C)[C@H](NC(=O)[C@H](CCCCN)NC(=O)[C@@H](NC(=O)[C@H](CCC(N)=O)NC(=O)[C@H](CCCNC(=N)N)NC(=O)[C@@H]1CSCC(=O)N[C@H]2CCCCNC(=O)CC[C@H](NC(=O)[C@H](CC(N)=O)NC(=O)[C@H](CC(=O)O)NC(=O)[C@H](Cc3ccc(O)cc3)NC(=O)CNC(=O)[C@H](CCC(=O)O)NC(=O)[C@H](Cc3ccccc3)NC2=O)C(=O)N1)[C@@H](C)CC)C(=O)N[C@@H](Cc1c[nH]c2ccccc12)C(=O)N[C@@H](Cc1ccccc1)C(=O)N[C@@H](CCC(N)=O)C(=O)N[C@@H](CC(N)=O)C(=O)N[C@@H](CCCNC(=N)N)C(=O)N[C@@H](CCCNC(=N)N)C(=O)N[C@@H](CCSC)C(=O)N[C@@H](CCCCN)C(=O)N[C@@H](Cc1c[nH]c2ccccc12)C(=O)N[C@@H](CCCCN)C(=O)N[C@@H](CCCCN)C(N)=O` ({CH2CO}-KFEGYDNECRQIKIWFQNRRMKWKK-NH2; lactam 1-8; thioether N-9), the inhibition result in experiment [1], in experiment [2], in [3], in [4], in [5] and in [6] was “Active” each time.
Take `CC[C@H](C)[C@H](NC(=O)[C@H](CCCCN)NC(=O)[C@@H](NC(=O)[C@H](CCC(N)=O)NC(=O)[C@H](CCCNC(=N)N)NC(=O)[C@@H]1CSCC(=O)N[C@H]2CCCCNC(=O)CC[C@H](NC(=O)[C@H](CC(N)=O)NC(=O)[C@H](CC(=O)O)NC(=O)[C@H](Cc3ccc(C(=O)O)cc3)NC(=O)CNC(=O)[C@H](CCC(=O)O)NC(=O)[C@H](Cc3ccccc3)NC2=O)C(=O)N1)[C@@H](C)CC)C(=O)N[C@@H](Cc1c[nH]c2ccccc12)C(=O)N[C@@H](Cc1ccccc1)C(=O)N[C@@H](CCC(N)=O)C(=O)N[C@@H](CC(N)=O)C(=O)N[C@@H](CCCNC(=N)N)C(=O)N[C@@H](CCCNC(=N)N)C(=O)N[C@@H](CCSC)C(=O)N[C@@H](CCCCN)C(=O)N[C@@H](Cc1c[nH]c2ccccc12)C(=O)N[C@@H](CCCCN)C(=O)N[C@@H](CCCCN)C(N)=O` ({CH2CO}-KFEG[Phe(4-COOH)]DNECRQIKIWFQNRRMKWKK-NH2; lactam 1-8; thioether N-9): the inhibition result in experiment [1], in experiment [2], in experiment [3], in experiment [4], in [5] and in [6] was “Active” throughout.

Source of the values: ChEMBL document CHEMBL4028884, “Discovery, Development, and Cellular Delivery of Potent and Selective Bicyclic Peptide Inhibitors of Grb7 Cancer Target” (J Med Chem, 2017).
